According to ChEMBL document CHEMBL1201862, “PubChem BioAssay data set” (2004):
Active and inactive are the calls of the source. For most assays here, no stated cut-off is given here; in the data, actives have a measured IC50 and inactives only a lower limit.

Tests used:
[1] = system: Streptococcus; assay: Group A Streptococcus viability loss, dose response, counter-screen for streptokinase expression inhibitor project, luminescence, BacTiterGlo (AID 1915); format: functional, organism-based;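 further: potency for reduction of bacterial viability or growth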
[2] = target: T1, Caspase-3 (Homo sapiens, UniProt P42574); format: functional;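 further: Dose-response selectivity test against caspase-3 for candidate inhibitors of sentrin-specific proteases (SENPs)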
T1 sequence (P42574 whole entry): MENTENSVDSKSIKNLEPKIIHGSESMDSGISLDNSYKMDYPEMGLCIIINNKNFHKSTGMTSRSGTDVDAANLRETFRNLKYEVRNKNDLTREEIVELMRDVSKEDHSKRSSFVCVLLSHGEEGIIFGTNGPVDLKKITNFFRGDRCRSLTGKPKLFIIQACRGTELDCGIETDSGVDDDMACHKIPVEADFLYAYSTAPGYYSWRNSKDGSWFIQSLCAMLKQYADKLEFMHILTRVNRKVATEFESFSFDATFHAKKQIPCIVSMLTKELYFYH

[3] = target: T2, Sentrin-specific protease 6 (Homo sapiens, UniProt Q9GZR1); format: functional;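 further: Luminescence-based dose-response confirmatory assay of SENP6 inhibition, following up an ultra-high-throughput screen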
T2 sequence (Q9GZR1 whole entry): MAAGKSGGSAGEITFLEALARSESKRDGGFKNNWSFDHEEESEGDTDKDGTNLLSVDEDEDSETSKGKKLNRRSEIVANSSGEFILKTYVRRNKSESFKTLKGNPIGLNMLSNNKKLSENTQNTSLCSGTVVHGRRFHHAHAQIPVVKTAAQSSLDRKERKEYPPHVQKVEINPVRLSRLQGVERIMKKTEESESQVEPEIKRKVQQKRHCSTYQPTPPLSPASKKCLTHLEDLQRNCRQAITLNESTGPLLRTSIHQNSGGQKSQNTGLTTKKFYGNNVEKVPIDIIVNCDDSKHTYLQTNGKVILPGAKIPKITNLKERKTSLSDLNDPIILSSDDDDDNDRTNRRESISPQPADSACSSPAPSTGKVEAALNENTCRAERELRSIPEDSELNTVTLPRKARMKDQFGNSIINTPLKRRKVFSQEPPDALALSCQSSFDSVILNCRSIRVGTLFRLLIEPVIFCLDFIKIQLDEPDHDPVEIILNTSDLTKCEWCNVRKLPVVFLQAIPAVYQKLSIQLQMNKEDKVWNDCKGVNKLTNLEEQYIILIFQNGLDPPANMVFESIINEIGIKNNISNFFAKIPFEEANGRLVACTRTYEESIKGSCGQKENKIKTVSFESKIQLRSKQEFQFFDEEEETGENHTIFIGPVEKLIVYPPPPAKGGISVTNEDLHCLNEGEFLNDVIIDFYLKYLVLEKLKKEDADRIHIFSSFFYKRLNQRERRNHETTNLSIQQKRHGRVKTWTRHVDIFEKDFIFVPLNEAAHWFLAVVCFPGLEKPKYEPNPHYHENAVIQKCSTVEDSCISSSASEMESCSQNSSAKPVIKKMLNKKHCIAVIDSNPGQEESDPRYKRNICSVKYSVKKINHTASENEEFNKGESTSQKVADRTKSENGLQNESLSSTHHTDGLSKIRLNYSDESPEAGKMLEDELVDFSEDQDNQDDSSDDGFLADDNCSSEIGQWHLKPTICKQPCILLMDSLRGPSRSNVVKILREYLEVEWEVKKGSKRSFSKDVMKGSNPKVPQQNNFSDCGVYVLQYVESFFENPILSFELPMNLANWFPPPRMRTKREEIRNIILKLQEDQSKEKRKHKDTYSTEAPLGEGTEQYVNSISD

[4] = target: T3, Sentrin-specific protease 8 (Homo sapiens, UniProt Q96LD8); format: functional;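 further: luminescence read-out of SENP8 inhibition, dose-response confirmation following an ultra-high-throughput screen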
T3 sequence (Q96LD8 whole entry): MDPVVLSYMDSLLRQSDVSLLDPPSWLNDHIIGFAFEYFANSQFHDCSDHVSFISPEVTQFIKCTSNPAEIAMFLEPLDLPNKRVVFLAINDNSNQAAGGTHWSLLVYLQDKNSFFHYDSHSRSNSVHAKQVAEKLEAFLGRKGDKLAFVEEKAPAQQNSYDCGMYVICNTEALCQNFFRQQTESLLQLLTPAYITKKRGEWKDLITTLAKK

Clc1ccc(C2=CSC3=Nc4cccc5cccc(c45)N23)cc1
active: EC50 [1] 17.1 µM | IC50 [2] 7.93 µM | IC50 [3] 1.89 µM | IC50 [4] 2.04 µM
